Where two headings read alike, the source gives them in different places. Blank lines part the entries; values can stand above or below the compound they belong to.
Key:
[1] = tested on: Puccinia triticina; assay: Fungicidal activity: Wheat Brown Rust (PUCCRT); type: in vivo; conditions: for pest or weed control at 100 µg/mL: High Volume (100 ppm); for pest or weed control at 121.5 g/ha: Low Volume (121.5 g/H)
Method in brief: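 Wheat seedlings (Yuma, first leaf) sprayed to run-off with compound in acetone/water with Triton X-100, inoculated with Puccinia triticina before or after treatment. Held overnight in dark dew at 22° C, then greenhouse at 24° C; percent disease control from severity versus untreated plants.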

[2] = tested on: Mycosphaerella graminicola; Anamorph: Septoria tritici; assay: Fungicidal activity: Leaf Blotch of Wheat (SEPTTR); type: in vivo; conditions: Zymoseptoria tritici; for pest or weed control at 121.5 g/ha: Low Volume (121.5 g/H)
Method in brief: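 Compounds were dissolved in acetone, diluted with nine volumes of water containing 110 ppm Triton X-100, and sprayed to run-off on first-leaf Yuma wheat seedlings inoculated with Septoria tritici spores before or after treatment. Plants were held in a dew chamber, then a 20° C. greenhouse. Percent control was derived from disease severity relative to untreated plants.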

[3] = 24 h, 1 Day Protectant, read-out: PUCCRT 1 DP disease control
[4] = 72 h, 3 Day Curative, read-out: PUCCRT 3 DC disease control
[5] = 24 h, High Volume (100 ppm), 1 Day Protectant, wheat leaf blotch, read-out: SEPTTR 1 DP disease control
[6] = 24 h, 1 Day Protectant, wheat leaf blotch, read-out: SEPTTR 1 DP disease control
[7] = 72 h, High Volume (100 ppm), 3 Day Curative, wheat leaf blotch, read-out: SEPTTR 3 DC disease control
[8] = 72 h, 3 Day Curative, wheat leaf blotch, read-out: SEPTTR 3 DC disease control

melting point: 206 to 211 °C
Compound: C[C@H]1OC(=O)[C@@H](N)COC[C@H](Cc2ccccc2)[C@H]1Cc1ccccc1.Cl

melting point: 184 °C (dec.)
Compound: C[C@@H]1OC(=O)[C@@H](N)COC[C@H](CCc2ccccc2)[C@H]1CCc1ccccc1.Cl

melting point: 208 °C (dec.)
Compound: C=C[C@@H]1[C@@H](Cc2ccccc2)COC[C@H](N)C(=O)O[C@H]1C.Cl

melting point: 191 to 197 °C (dec.)
Compound: C[C@@H]1OC(=O)[C@@H](N)COC[C@H](CC2CCCCC2)[C@H]1CC1CCCCC1.Cl

melting point: 184 to 187 °C (dec.)
Compound: C=C(C)CCC[C@@H]1[C@@H](Cc2ccccc2)COC[C@H](N)C(=O)O[C@H]1C.Cl

melting point: 196 to 199 °C
Compound: CC(C)COC[C@@H]1[C@@H](Cc2ccccc2)COC[C@H](N)C(=O)O[C@H]1C.Cl

melting point: 181 to 186 °C (dec.)
Compound: COc1cccc(C[C@H]2COC[C@H](N)C(=O)O[C@@H](C)[C@@H]2Cc2cccc(OC)c2)c1.Cl

melting point: 196 to 202 °C
Compound: C[C@@H]1OC(=O)[C@@H](N)COC[C@H](Cc2ccccc2)[C@H]1Cc1ccccc1.Cl

melting point: 164 to 167 °C
Compound: C[C@@H]1OC(=O)[C@@H](N)COC[C@H](CC2CCCC2)[C@H]1CC1CCCC1.Cl

melting point: 144 to 148 °C
Compound: C[C@@H]1OC(=O)[C@@H](N)COC[C@H](Cc2ccc(Cl)cc2)[C@H]1Cc1ccc(OC(F)(F)F)cc1.Cl

melting point: 172 to 175 °C
Compound: C[C@@H]1OC(=O)[C@@H](N)COC[C@H](Cc2ccc(C(F)(F)F)cc2)[C@H]1Cc1ccc(OC(F)(F)F)cc1.Cl

melting point: 147 to 151 °C
Compound: C[C@@H]1OC(=O)[C@@H](N)COC[C@H](CCCc2ccccc2)[C@H]1CCc1ccccc1.Cl

melting point: 189 to 195 °C
Compound: C[C@@H]1OC(=O)[C@@H](N)COC[C@H](CC2CC2)[C@H]1Cc1ccccc1.Cl

melting point: 163 to 168 °C
Compound: CC(C)C[C@@H]1[C@@H](Cc2ccc(C(F)(F)F)cc2)COC[C@H](N)C(=O)O[C@H]1C.Cl

melting point: 200 to 203 °C
Compound: C[C@@H]1OC(=O)[C@@H](N)COC[C@H](Cc2ccc(Cl)cc2)[C@H]1C1CCCC1.Cl

melting point: 149 to 153 °C
Compound: CC(C)CC[C@H]1COC[C@H](N)C(=O)O[C@@H](C)[C@@H]1C1CCCC1.Cl

melting point: 209 to 214 °C
Compound: C[C@@H]1OC(=O)[C@@H](N)COC[C@H](Cc2ccccc2)[C@H]1COc1ccccc1.Cl

melting point: 184 to 187 °C
Compound: CCC[C@H]1COC[C@H](N)C(=O)O[C@@H](C)[C@@H]1Cc1ccc(F)cc1.Cl

Compound: COc1ccnc(C(=O)N[C@H]2COC[C@H](Cc3ccccc3)[C@@H](Cc3ccccc3)[C@H](C)OC2=O)c1O [Cmpd. 112, N-((3S,7R,8R,9S)-7,8-dibenzyl-9-methyl-2-oxo-1,5-dioxonan-3-yl)-3-hydroxy-4-methoxypicolinamide]
pest or weed control at 100 µg/mL [1, 3]: < 70%
pest or weed control at 100 µg/mL [1, 4]: < 70%
pest or weed control at 100 µg/mL ([2]; 24 h, read-out: SEPTTR 1 DP disease control): < 70%
pest or weed control at 100 µg/mL ([2]; 72 h, read-out: SEPTTR 3 DC disease control): < 70%
melting point: 69 to 72 °C

melting point: 41 to 45 °C
Compound: C[C@@H]1OC(=O)[C@@H](NC(=O)OC(C)(C)C)COC[C@H](Cc2ccccc2)[C@H]1Cc1ccccc1 [Cmpd. 203, tert-butyl ((3S,7R,8R,9S)-7,8-dibenzyl-9-methyl-2-oxo-1,5-dioxonan-3-yl)carbamate]

melting point: 42 to 47 °C
Compound: COc1ccnc(C(=O)N[C@H]2COC[C@H](CCc3ccccc3)[C@@H](CCc3ccccc3)[C@H](C)OC2=O)c1OCOC(C)=O [compound 4]
pest or weed control at 100 µg/mL [1, 3]: > 70%
pest or weed control at 121.5 g/ha [1, 3]: > 70%
pest or weed control at 100 µg/mL [1, 4]: > 70%
pest or weed control at 121.5 g/ha [1, 4]: < 70%
pest or weed control at 100 µg/mL [2, 5]: > 70%
pest or weed control at 121.5 g/ha [2, 6]: > 70%
pest or weed control at 100 µg/mL [2, 7]: > 70%
pest or weed control at 121.5 g/ha [2, 8]: > 70%

melting point: 42 to 48 °C
Compound: C=C[C@@H]1[C@@H](Cc2ccccc2)COC[C@H](NC(=O)c2nccc(OC)c2OCOC(C)=O)C(=O)O[C@H]1C [compound 9]
pest or weed control at 100 µg/mL [1, 3]: > 70%
pest or weed control at 100 µg/mL [1, 4]: > 70%
pest or weed control at 100 µg/mL [2, 5]: > 70%
pest or weed control at 100 µg/mL [2, 7]: > 70%

melting point: 50 to 56 °C
Compound: COc1ccnc(C(=O)N[C@H]2COC[C@H](CC3CCCCC3)[C@@H](CC3CCCCC3)[C@H](C)OC2=O)c1OCOC(C)=O [compound 10]
pest or weed control at 100 µg/mL [1, 3]: > 70%
pest or weed control at 100 µg/mL [1, 4]: > 70%
pest or weed control at 100 µg/mL [2, 5]: > 70%
pest or weed control at 100 µg/mL [2, 7]: < 70%

melting point: 35 to 40 °C
Compound: C=C(C)COC[C@@H]1[C@@H](Cc2ccccc2)COC[C@H](NC(=O)c2nccc(OC)c2OCOC(C)=O)C(=O)O[C@H]1C [compound 11]

melting point: 44 to 48 °C
Compound: COc1ccnc(C(=O)N[C@@H]2COC[C@@H](Cc3ccccc3)[C@H](COCC(C)C)[C@@H](C)OC2=O)c1OCOC(C)=O [compound 13]
pest or weed control at 100 µg/mL [1, 3]: > 70%
pest or weed control at 121.5 g/ha [1, 3]: > 70%
pest or weed control at 100 µg/mL [1, 4]: > 70%
pest or weed control at 121.5 g/ha [1, 4]: > 70%
pest or weed control at 100 µg/mL [2, 5]: > 70%
pest or weed control at 121.5 g/ha [2, 6]: > 70%
pest or weed control at 100 µg/mL [2, 7]: > 70%
pest or weed control at 121.5 g/ha [2, 8]: > 70%

melting point: 51 to 55 °C
Compound: COc1cccc(C[C@H]2COC[C@H](NC(=O)c3nccc(OC)c3OCOC(C)=O)C(=O)O[C@@H](C)[C@@H]2Cc2cccc(OC)c2)c1 [compound 17]
pest or weed control at 121.5 g/ha [1, 3]: > 70%
pest or weed control at 121.5 g/ha [1, 4]: < 70%
pest or weed control at 121.5 g/ha [2, 6]: > 70%
pest or weed control at 121.5 g/ha [2, 8]: > 70%

melting point: 69 to 73 °C
Compound: COc1ccnc(C(=O)N[C@H]2COC[C@H](Cc3ccccc3)[C@@H](c3ccccc3)[C@H](C)OC2=O)c1OCOC(=O)C(C)C [compound 52]

melting point: 99 to 103 °C
Compound: COc1ccnc(C(=O)N[C@H]2COC[C@H](Cc3ccccc3)[C@@H](c3ccccc3)[C@H](C)OC2=O)c1OC(C)=O [compound 54]
pest or weed control at 121.5 g/ha [1, 3]: > 70%
pest or weed control at 121.5 g/ha [1, 4]: > 70%
pest or weed control at 121.5 g/ha [2, 6]: > 70%
pest or weed control at 121.5 g/ha [2, 8]: > 70%

melting point: 57 to 63 °C
Compound: C=C[C@@H]1[C@@H](Cc2ccccc2)COC[C@H](NC(=O)c2nccc(OC)c2O)C(=O)O[C@H]1C [compound 118]

Compound: COc1ccnc(C(=O)N[C@H]2COC[C@H](Cc3ccccc3)[C@@H](CCC(C)C)[C@H](C)OC2=O)c1O [compound 148]
pest or weed control at 100 µg/mL [1, 3]: < 70%
pest or weed control at 100 µg/mL [1, 4]: < 70%
pest or weed control at 100 µg/mL [2, 5]: > 70%
pest or weed control at 100 µg/mL [2, 7]: > 70%

Compound: CCC[C@H]1COC[C@H](NC(=O)c2nccc(OC)c2O)C(=O)O[C@@H](C)[C@@H]1c1ccccc1 [compound 152]
pest or weed control at 100 µg/mL [1, 3]: > 70%
pest or weed control at 100 µg/mL [1, 4]: > 70%
pest or weed control at 100 µg/mL [2, 5]: > 70%
pest or weed control at 100 µg/mL [2, 7]: > 70%

Compound: COc1ccnc(C(=O)N[C@H]2COC[C@H](CC3CC3)[C@@H](Cc3ccc(F)cc3)[C@H](C)OC2=O)c1O [compound 153]
pest or weed control at 100 µg/mL [1, 3]: > 70%
pest or weed control at 100 µg/mL [1, 4]: > 70%
pest or weed control at 100 µg/mL [2, 5]: > 70%
pest or weed control at 100 µg/mL [2, 7]: > 70%

Compound: COc1ccnc(C(=O)N[C@H]2COC[C@H](CC3CC3)[C@@H](c3ccccc3)[C@H](C)OC2=O)c1O [compound 154]
pest or weed control at 100 µg/mL [1, 3]: > 70%
pest or weed control at 100 µg/mL [1, 4]: > 70%
pest or weed control at 100 µg/mL [2, 5]: > 70%
pest or weed control at 100 µg/mL [2, 7]: > 70%

melting point: 63 to 71 °C
Compound: C[C@@H]1OC(=O)[C@@H](NC(=O)OC(C)(C)C)COC[C@H](c2ccccc2)[C@H]1c1ccccc1 [compound 204]

melting point: 134 to 138 °C
Compound: C=C[C@@H]1[C@@H](Cc2ccccc2)COC[C@H](NC(=O)OC(C)(C)C)C(=O)O[C@H]1C [compound 205]

melting point: 44 to 50 °C
Compound: C[C@@H]1OC(=O)[C@@H](NC(=O)OC(C)(C)C)COC[C@H](CC2CCCCC2)[C@H]1CC1CCCCC1 [compound 206]

melting point: 84 to 88 °C
Compound: C=C(C)COC[C@@H]1[C@@H](Cc2ccccc2)COC[C@H](NC(=O)OC(C)(C)C)C(=O)O[C@H]1C [compound 208]

melting point: 95 to 99 °C
Compound: C[C@@H]1OC(=O)[C@@H](NC(=O)OC(C)(C)C)COC[C@H](CC2CCCC2)[C@H]1CC1CCCC1 [compound 215]

melting point: 47 to 51 °C
Compound: C[C@@H]1OC(=O)[C@@H](NC(=O)OC(C)(C)C)COC[C@H](Cc2ccccc2)[C@H]1Cc1ccc(OC(F)(F)F)cc1 [compound 223]

melting point: 66 to 71 °C
Compound: C[C@@H]1OC(=O)[C@@H](NC(=O)OC(C)(C)C)COC[C@H](Cc2ccccc2)[C@H]1c1ccccc1 [compound 224]

melting point: 50 to 56 °C
Compound: C[C@@H]1OC(=O)[C@@H](NC(=O)OC(C)(C)C)COC[C@H](Cc2ccc(C(F)(F)F)cc2)[C@H]1Cc1ccc(OC(F)(F)F)cc1 [compound 225]

melting point: 115 to 118 °C
Compound: CC(C)C[C@@H]1[C@@H](Cc2ccc(C(F)(F)F)cc2)COC[C@H](NC(=O)OC(C)(C)C)C(=O)O[C@H]1C [compound 229]

melting point: 113 to 115 °C
Compound: C[C@@H]1OC(=O)[C@@H](NC(=O)OC(C)(C)C)COC[C@H](Cc2ccc(Cl)cc2)[C@H]1C1CCCC1 [compound 237]

From patent US9955691B2, “Macrocyclic picolinamides as fungicides” (DOW AGROSCIENCES LLC, priority 2014, dated 2018)
